We go through 9 molecules from publication PMC11694070, “Development of 6-amido-4-aminoisoindolyn-1,3-diones as p70S6K1 inhibitors and potential breast cancer therapeutics” (Frontiers in Molecular Biosciences, 2024).

One data set concerns the target p70S6K1 (Homo sapiens, UniProt P23443). In words: Z′-LYTE biochemical kinase inhibition assay (SelectScreen, Thermo Fisher). Particulars: for inhibition at 10 µM: 10 µM compound concentration, high-throughput single-concentration screen; for IC50 / IC50 of inhibition of p70S6K1: 10-point titration, 3-fold dilutions from 25 μM. As to the method: The high-throughput and dose-response curve assays against kinases were performed using the services of SelectScreen™ Biochemical Kinase Profiling Service by Thermo Fisher Scientific (Table 2; Supplementary Figure S13). The Z ´-LYTE biochemical assay employs a fluorescence-based, coupled-enzyme format based on the differential sensitivity of phosphorylated and non-phosphorylated peptides to proteolytic cleavage. The peptide substrate is labeled with two fluorophores—one at each end—that make up a fluorescence resonance energy transfer (FRET) pair. In the primary reaction, the kinase transfers the gamma-phosphate of ATP to a single tyrosine, serine, or threonine residue in a synthetic FRET-peptide. In the secondary reaction, a site-specific protease recognizes and cleaves non-phosphorylated FRET peptides. Phosphorylation of FRET-peptides suppresses cleavage by the development reagent. Cleavage disrupts FRET between the donor (i.e., coumarin) and acceptor (i.e., fluorescein) fluorophores on the FRET-peptide, whereas uncleaved, phosphorylated FRET-peptides maintain FRET. A ratiometric method, which calculates the emission ratio of donor emission to acceptor emission after excitation of the donor fluorophore at 400 nm, is used to quantitate reaction progress, as shown in the equation below.” Emission ratio=Coumarin emission 445 nm/Flourescein emission 520 nm.
The test compounds were screened in 1% DMSO (final) in the well. For 10-point titrations, 3-fold serial dilutions were conducted from the starting concentration of 25 μM.
All peptide/kinase mixtures are diluted to a 2× working concentration in the appropriate kinase Buffer. The 2X RPS6KB1 (p70S6K)/Ser/Thr 07 mixture is prepared in 50 mM HEPES pH 7.5, 0.01% BRIJ-35, 10 mM MgCl2, 1 mM EGTA. The final 10 µL kinase reaction consists of 2.87–17.7 ng RPS6KB1 (p70S6K) and 2 µM Ser/Thr 07 in 50 mM HEPES pH 7.5, 0.01% BRIJ-35, 10 mM MgCl2, 1 mM EGTA. After the 1 h kinase reaction incubation, 5 µL of a 1:45000 dilution of Development Reagent A is added.
All ATP Solutions are diluted to a 4X working concentration in kinase buffer (50 mM HEPES pH 7.5, 0.01% BRIJ-35, 10 mM MgCl2, 1 mM EGTA). ATP Km apparent was previously determined using a Z′-LYTE assay.
Bar-coded Corning, low volume NBS, black 384-well plate (Corning Cat. #4514). • 1. 100 nL 100X test compound in 100% DMSO • 2. 2.4 µL kinase buffer • 3. 5 μL 2X peptide/kinase mixture • 4. 2.5 µL 4X ATP solution • 5. 30-s plate shake • 6. 60-min kinase reaction incubation at room temperature • 7. 5 μL Development Reagent solution • 8. 30-s plate shake • 9. 60-min Development Reaction incubation at room temperature • 10. Read on the fluorescence plate reader and analyze the data
The SelectScreenTM Biochemical Kinase Profiling Service by ThermoFisher Scientific was used to perform a high-throughput kinase inhibition assay at a single concentration as well as 10-point titrations to generate the dose-response curves for IC50 calculations. The Z′-LYTE biochemical assay, which is a FRET-based assay, was used to analyze the compounds for p70S6K1 inhibition. Compounds 5a–f were subjected to an initial high-throughput screening against p70S6K1 at 10 µM concentration (Table 1).

The test system of another data set is MCF7 E3 cells. In words: MCF-7 E3 cell proliferation assay (alamarBlue). Format: cell-based. The following applies: Homo sapiens, 10 μM compound, in the presence of E2 (10^−10 M), estrogen-deprived cells. As to the method:
Human breast tumor cells MCF-7 subclone E3 were routinely maintained in DMEM medium (Mediatech) supplemented with non-essential amino acid (Gibco), sodium pyruvate (Gibco), L-glutamine (Gibco), gentamicin (Gibco), and 10% fetal bovine serum (FBS) (Hyclone). For the proliferation experiment, the MCF-7 monolayer was dispersed into suspension in DMEM medium with 10% FBS, and 5 × 10^5 cells were seeded into a T-25 flask. The medium was aspirated from the cells, washed with phosphate buffer saline, and cultured with DMEM medium containing dextran-coated charcoal (DCC) FBS for 6 days. After 6 days, the cells were dispersed into suspension, counted, and 1.8 × 10^4 cells per well in a 100 µL DCC medium was subcultured into 96-well plates. After 24 h incubation, the medium was aspirated and replaced with the test compound at 10^−5 M. The cells were dosed again after 3 days and grown for another 3 days. Measurement for cell proliferation was performed with alamarBlue (Bio-Rad) on a plate reader (BioTek Synergy Neo2) with 560 nm excitation and 590 nm emission. The experiments were performed in quadruplicate.
The MCF7 cell line is often used in studies involving ERα overexpressing BC. It is well-established that overexpression of estrogen leads to overexpression of p70S6K1 due to the costimulatory relationship between them, thereby driving the progression of BC ([Fullwood et al., 2009]; [Maruani et al., 2012]). The knockdown or absence of estrogen was partially abrogated by p70S6K1 rescuing and promoting ERα activity ([Holz, 2012]; [Yamnik et al., 2009]). For these reasons, MCF7 cells were used for the proliferation studies in the presence of our p70S6K1 inhibitors. MCF7 E3 cells were grown under estrogen-deprived conditions and treated with 10 μM concentrations of the compounds with and without E2 (10^−10 M). The proliferation was measured using alamarBlue (Figure 5). Compound 5b, with the best p70S6K1 inhibition potency of 0.4 μM IC50 value, inhibited the proliferation of MCF7 E3 cells by 60% in the presence of E2. […] The trend of MCF7 E3 proliferation was directly proportional to the p70S6K1 inhibition potency.
On the technique in general: Resazurin is reduced to fluorescent resorufin, in cell work by metabolically active cells.

For data set [1], the system named is rpS6 phosphorylation (S235/236, S240/244). In words: Western blot of rpS6 and phospho-rpS6 in MCF7 cells. Particulars: MCF7 cells estrogen deprived, 5 µM and 10 µM, with β estradiol, 24 h and 48 h. It counts as cell-based, Human. As to the method: Total proteins were isolated using standard protocols as previously described ([Greenberg et al., 2022]; [Kim H. et al., 2013]). In brief, ice-cold RIPA lysis buffer containing phosphatase and protease inhibitors (Santa Cruz Biotechnology, Dallas, TX, USA) was used to lyse cells. The clarified lysate protein concentration was measured using Bradford reagent (Thermo Scientific, Waltham, MA, USA). The proteins were separated using a 4%–20% SDS-PAGE gradient gel and transferred onto a PVDF membrane (Bio-Rad, Hercules, CA, USA). A 1X blocking buffer was used to block the non-specific binding sites. The membranes were washed with Tris-buffered saline (Bio-Rad) containing 0.1% Tween-20 (Sigma-Aldrich, St. Louis, MO, USA). Membranes were incubated overnight with primary antibodies at 4°C. […] Immune complexes were detected with appropriate secondary antibodies from Invitrogen (Camarillo, CA, USA) and Clarity Western ECL Substrate (Bio-Rad), as described ([Greenberg et al., 2022]). […] Results were expressed as the standard error of the mean (±SEM). Significant changes from controls or E2 treated group were determined by a two-tailed Student’s t-test, and p-values of <0.05 were considered significant. […]
(In general: In western blotting, separated proteins are transferred to a membrane and probed.)

Details of data set [2]: method as in Li et al., 2010; Motzer et al., 2015; Tolcher et al., 2014. Particulars: given with erlotinib and everolimus; ref Li et al., 2010; Motzer et al., 2015; Tolcher et al., 2014; cited from earlier work.
On the set-up of data set [3]: method as in Pearce et al., 2010; Segatto et al., 2016. Particulars: ref Pearce et al., 2010, Segatto et al., 2016, cited from earlier work.
A further data set relates to cervical cancer cells. Also on record: method as in Nam et al., 2019. Particulars: ref Nam et al., 2019; cited from earlier work.

p70S6K1, sequence (P23443 24-525): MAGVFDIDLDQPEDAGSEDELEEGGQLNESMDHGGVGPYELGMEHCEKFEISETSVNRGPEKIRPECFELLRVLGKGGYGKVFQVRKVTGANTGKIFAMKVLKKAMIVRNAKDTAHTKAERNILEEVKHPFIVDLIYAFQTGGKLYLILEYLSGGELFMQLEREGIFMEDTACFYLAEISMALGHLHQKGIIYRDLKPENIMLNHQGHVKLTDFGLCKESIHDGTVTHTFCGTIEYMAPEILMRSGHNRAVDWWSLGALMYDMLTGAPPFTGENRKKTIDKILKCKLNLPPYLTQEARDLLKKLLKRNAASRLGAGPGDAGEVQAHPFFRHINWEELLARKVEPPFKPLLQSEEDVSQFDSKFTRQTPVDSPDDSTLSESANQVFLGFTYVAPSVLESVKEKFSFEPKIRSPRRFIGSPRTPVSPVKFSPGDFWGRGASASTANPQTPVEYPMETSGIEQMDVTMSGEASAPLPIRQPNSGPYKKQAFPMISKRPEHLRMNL

What is called inhibition is the relative decrease from the control value, in per cent. Broadly, the IC50 is the midpoint of a concentration-inhibition curve. Read a high IC50 as weaker potency. For the molecule `Nc1cc(N)c2c(c1)C(=O)NC2=O` [Compound 4, 4,6-diaminoisoindoline-1,3-dione], on p70S6K1, the inhibition at 10 µM is 70% and the IC50 is 1200 nM.
Consider `Nc1cc(NC(=O)Cc2ccccc2)cc2c1C(=O)NC2=O` [Compound 5b, N-(7-amino-1,3-dioxoisoindolin-5-yl)-2-phenylacetamide], for which the inhibition at 10 µM in the data set with MCF7 E3 cells is 60%. The “rpS6 protein expression and phosphorylation (S235/236, S240/244), immunoblot band intensity” value in data set [1] was “significant decreases”. Besides, on p70S6K1, the inhibition at 10 µM is more than 90%, the IC50 amounted to 400 nM and the “IC50 of inhibition of p70S6K1” value is recorded as “sub-micromolar”.
With `Nc1cc(NC(=O)Cc2ccc(C(F)(F)F)cc2)cc2c1C(=O)NC2=O` [Compound 5c, N-(7-amino-1,3-dioxoisoindolin-5-yl)-2-(4-(trifluoromethyl)phenyl)acetamide], in the data set on MCF7 E3 cells, the inhibition at 10 µM is 35%. Besides, at p70S6K1, the inhibition at 10 µM amounted to 80% and the IC50 is 5450 nM.
Turning to `Nc1cc(NC(=O)Cc2cccc(C(F)(F)F)c2)cc2c1C(=O)NC2=O` [Compound 5d, N-(7-amino-1,3-dioxoisoindolin-5-yl)-2-(3-(trifluoromethyl)phenyl)acetamide], the inhibition at 10 µM in the data set with MCF7 E3 cells amounted to 56%. On p70S6K1, the inhibition at 10 µM is more than 90%, the IC50 was 510 nM and the “IC50 of inhibition of p70S6K1” value is on record as “sub-micromolar”.
Consider `Nc1cc(NC(=O)C23CC4CC(CC(C4)C2)C3)cc2c1C(=O)NC2=O` [Compound 5e, N-(7-amino-1,3-dioxoisoindolin-5-yl)adamantane-1-carboxamide], for which the inhibition at 10 µM on p70S6K1 was found to be 22%.
In the case of `Nc1cc(NC(=O)Cc2ccc(Br)cc2)cc2c1C(=O)NC2=O` [Compound 5f, N-(7-amino-1,3-dioxoisoindolin-5-yl)-2-(4-bromophenyl)acetamide], the inhibition at 10 µM in the data set with MCF7 E3 cells is 40%. Further, on p70S6K1, the inhibition at 10 µM turned out to be 93%, inhibition was half-maximal at 750 nM (IC50) and the “IC50 of inhibition of p70S6K1” value is “sub-micromolar”.
With `Cn1cc(-c2ccc(F)c(C(F)(F)F)c2)nc1C1CCN(c2ncnc3[nH]ncc23)CC1` [LY-2584702], in data set [2], the “tolerability in Phase I trials” value is “not well-tolerated”.
As for `CCc1cncnc1N1CCN(Cc2nc3cc(C(F)(F)F)ccc3[nH]2)CC1` [PF-4708671], the “tolerability in preclinical studies” value in data set [3] (preclinical studies for breast cancer) was “well-tolerated”. In data set [3], the “blood–brain barrier (BBB) penetration” value was “poor blood–brain barrier (BBB) penetrant”.
Take `COC(=O)[C@@H](Cc1ccc(O)c(O)c1)OC(=O)/C=C/c1ccc(O)c(O)c1` [Rosmarinic acid methyl ester]: the “autophagy and apoptotic cell death” value in the data set on cervical cancer cells is “increase in autophagy and apoptotic cell death”.
